Measurements from patent US9562022B2 (priority 2009, dated 2017).
Counter-ions that a name gives are not always drawn.

System: not given
Assay: not given
Conditions: not given

| melting point | Structure (SMILES) |
| --- | --- |
| 181 to 183 °C | CC1=C(/C=C/C(=O)N2CCN(S(N)(=O)=O)CC2)C(C)(C)CCC1 (as salt: hydrochloride) |

System: P23H opsin
Assay: Rhodopsin purification and regeneration (pigment formation from P23H opsin produced in the presence of compound)
Conditions: P23H opsin treated with 20 μM compound during mutant protein production; relative to pigment formation with vehicle (DMSO) alone

| Structure (SMILES) | regeneration of 500 nm absorbing pigment upon treatment with retinal |
| --- | --- |
| CC1=C(/C=C/C(=O)N2CCN(C(=O)NC(C)C)CC2)C(C)(C)CCC1 [Compound 37, (E)-N-Isopropyl-4-(3-(2,6,6-trimethylcyclohex-1-enyl)acryloyl)piperazine-1-carboxamide] | increase |
| C#CC1CN(C(=O)/C=C/C2=C(C)CCCC2(C)C)CCN1C(N)=O (centres unmarked) [Compound 106, (E)-2-Ethynyl-4-(3-(2,6,6-trimethylcyclohex-1-en-1-yl)acryloyl)piperazine-1-carboxamide] | increase |
| CC1=C(/C=C/C(=O)N2CC[C@@H](OC(N)=O)C2)C(C)(C)CCC1 [Compound 57, (R,E)-1-(3-(2,6,6-Trimethylcyclohex-1-en-1-yl)acryloyl)pyrrolidin-3-yl carbamate] | increase |
| CC1=C(/C=C/C(=O)N2CCN(C(N)=S)CC2)C(C)(C)CCC1 [Compound 105, (E)-4-(3-(2,6,6-Trimethylcyclohex-1-en-1-yl)acryloyl)piperazine-1-carbothioamide] | increase |
| CC1=C(/C=C/C(=O)N2CCN(C(N)=O)[C@H](C)C2)C(C)(C)CCC1 [Compound 53, (R,E)-2-Methyl-4-(3-(2,6,6-trimethylcyclohex-1-enyl)acryloyl)piperazine-1-carboxamide] | increase |
| CC1=C(/C=C/C(=O)N2CCN(C(N)=O)CC2)C(C)(C)CCC1 [Compound 33, (E)-4-(3-(2,6,6-Trimethylcyclohex-1-enyl)acryloyl)piperazine-1-carboxamide] | increase |
| C[C@H]1CCCC(C)(C)[C@@H]1/C=C/C(=O)N1CCN(C(N)=O)CC1 [Compound 73, (+)-4-((E)-3-((1S,6S)-2,2,6-trimethylcyclohexyl)acryloyl)piperazine-1-carboxamide] | increase |
| C[C@H]1CCCC(C)(C)[C@@H]1CCC(=O)N1CCN(C(N)=O)CC1 [Compound 80, 4-(3-((1R,6S)-2,2,6-trimethylcyclohexyl)propanoyl)piperazine-1-carboxamide] | increase |
| CC1=C(/C=C/C(=O)N2CCOCC2)C(C)(C)CCC1 [Compound 6, (E)-1-Morpholino-3-(2,6,6-trimethylcyclohex-1-enyl)prop-2-en-1-one] | increase |
| CC1=C(CCC(=O)N2CCN(C(N)=O)CC2)C(C)(C)CCC1 [Compound 51, 4-(3-(2,6,6-Trimethylcyclohex-1-enyl)propanoyl)piperazine-1-carboxamide] | increase |
| CC1=C(/C=C/C(=O)N2CCCN(C(N)=O)CC2)C(C)(C)CCC1 [Compound 13, (E)-4-(3-(2,6,6-Trimethylcyclohex-1-enyl)acryloyl)-1,4-diazepane-1-carboxamide] | increase |
| CC1=C(/C=C/C(=O)N2CCC(NC(N)=O)C2)C(C)(C)CCC1 (centres unmarked) [Compound 50, (E)-1-(1-(3-(2,6,6-Trimethylcyclohex-1-enyl)acryloyl)pyrrolidin-3-yl)urea] | increase |
| [2H]C1([2H])CCC(C)(C)C(/C=C/C(=O)N2CCN(C(N)=O)CC2)=C1C [Compound 63, (E)-4-(3-(3,3-Dideutero-2,6,6-trimethylcyclohex-1-en-1-yl)acryloyl)piperazine-1-carboxamide] | increase |
| CC1CCCC(C)(C)C1/C=C/C(=O)N1CCN(C(N)=O)CC1 (racemic) [Compound 71, (±)-4-((E)-3-((1,6-anti)-2,2,6-trimethylcyclohexyl)acryloyl)piperazine-1-carboxamide] | increase |
| CC1=C(CNC(=O)N2CCN(C(N)=O)CC2)C(C)(C)CCC1 [Compound 55, N^1-((2,6,6-Trimethylcyclohex-1-en-1-yl)methyl)piperazine-1,4-dicarboxamide] | increase |
| CC1=C(/C=C/C(=O)N2CCN(C(N)=O)[C@@H](C)C2)C(C)(C)CCC1 [Compound 52, (S,E)-2-Methyl-4-(3-(2,6,6-trimethylcyclohex-1-enyl)acryloyl)piperazine-1-carboxamide] | increase |
